In patent publication US11541029B2, “High penetration compositions and their applications” (Techfields Pharma Co., Ltd., priority 2008, dated 2023):

Legend:
[1] = Amount of salicylic acid in rat brain tissue (blood-brain barrier), 0.5 mmol/kg; type: in vivo, rats
Protocol: 30, 60, 120, 240, 480 minutes after the test compound was administrated, rats were decapitated and were perfused with normal Krebs-Henseleit buffer (with Heparin Sodium, pH7.4) (10 mL/min) to remove blood. […] The mixture was centrifuged for 5 minutes at 16,000 rpm. The supernatant (2 ml) was collected and evaporated to dryness.

[2] = system: GK rats (SLAC/GK, type 2 diabetes); test: Anti-diabetes (type II) activity of HPCs of NSAIAs in GK rats; type: in vivo; conditions: 30 mg/kg transdermally once per day, no fasting
How it was run: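 GK (type 2 diabetic) and normal SD rats, 14-16 weeks old, n=7, received 30 mg/kg test compound in 25% ethanol transdermally on a 6 cm^2 shaved back area once daily at 8 am for 6 weeks. Non-fasting blood glucose was measured at 4:30 pm every 3 days from week 3 to week 6.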

SLAC/DB/DB obese mice = test: Blood glucose and blood lipid levels in DB/DB mice; type: in vivo; conditions: 30 mg/kg transdermally once per day
How it was run: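 SLAC/DB/DB mice aged 10-12 weeks, n=7, dosed transdermally at 30 mg/kg in 25% ethanol onto a shaved 4 cm^2 back area once daily at 8 am for 5 weeks. Blood glucose measured weekly; blood lipids every other week.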

[3] = system: Human breast cancer cells (BCAP-37); test: Human breast cancer xenograft in nude mice
How it was run: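 BCAP-37 tumour tissue (2-3 mm^3 per mouse) implanted subcutaneously in BALB nude mice, 12 groups of 7. Test salts given as 50 μl of 5% aqueous solution (2.5 mg compound per dose).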

[4] = system: MPTP-induced Parkinson's disease mice; test: Anti-Parkinson's disease activity in MPTP-induced mice; conditions: MPTP mice, 30 mg/kg, n = 10
Protocol: Group A mice were ip injected 0.4% sodium carboxymethylcellulos (15 ml/kg per day) for 7 days. Group B and C mice were ip injected N-methyl-4-phenyl-1,2,3,6-tetrahydropyridine (MPTP, 30 mg/kg per day) for 7 days. The mice were divided into 2 groups. […] All mice were killed after the last treatment and the brain tissues were quickly freezed at −80° C. […] The contents of malondialdehyde (MDA) in the SN were measured with the thiobarbituric acid-reaction to indicate the LPO, and contents of glutathione (GSH) in the substantia nigra (SN) were based on the dithionitrobenzonic acid (DTNB) determination. The contents of GABA and Glu in the striatum and SN were shown by high performance amino acid auto-analyser.

CCN(CC)CCOC(=O)c1ccccc1OC(C)=O.Cl [P-1, diethylaminoethyl acetylsalicylate.HCl salt]
salicylic acid in brain tissue ([1]; intramuscularly, 30 min): 6.5 ± 2.2 nmol/g | salicylic acid in brain tissue ([1]; intramuscularly, 60 min): 8.2 ± 2.3 nmol/g | salicylic acid in brain tissue ([1]; intramuscularly, 120 min): 9.4 ± 3.1 nmol/g | salicylic acid in brain tissue ([1]; intramuscularly, 240 min): 8.5 ± 2.5 nmol/g | salicylic acid in brain tissue ([1]; intramuscularly, 480 min): 8.2 ± 2.3 nmol/g | salicylic acid in brain tissue ([1]; transdermally, 30 min): 3.1 ± 1.1 nmol/g | salicylic acid in brain tissue ([1]; transdermally, 60 min): 6.3 ± 2.3 nmol/g | salicylic acid in brain tissue ([1]; transdermally, 120 min): 8.2 ± 3.5 nmol/g | salicylic acid in brain tissue ([1]; transdermally, 240 min): 9.3 ± 3.3 nmol/g | salicylic acid in brain tissue ([1]; transdermally, 480 min): 9.5 ± 4.2 nmol/g | blood glucose, Average (Week 2-5) [2]: 6.4 ± 2.4 mmol/L | blood glucose, Day 1 [2]: 17.1 ± 2.8 mmol/L | Cholesterol (total), Day 1 (SLAC/DB/DB obese mice): 7.1 ± 0.4 mmol/L | Cholesterol (total), Week 5 (SLAC/DB/DB obese mice): 4.1 ± 0.4 mmol/L | Triglycerides, Day 1 (SLAC/DB/DB obese mice): 4.1 ± 0.5 mmol/L | Triglycerides, Week 5 (SLAC/DB/DB obese mice): 1.5 ± 0.3 mmol/L | blood glucose, Day 1 (SLAC/DB/DB obese mice): 14.1 ± 2.6 mmol/L | blood glucose, Week 5 (SLAC/DB/DB obese mice): 6.8 ± 2.8 mmol/L | tumor Size at day 42 ([3]; 50 μl of 5% topically every 8 hours): 140 ± 50 mm^3 | Weight of mice at day 42 ([3]; in vivo): 24 ± 3 | GABA in Striatum [4]: 4.9 ± 1.6 μmol/g wet tissue | GABA in Substantia nigra [4]: 4.7 ± 0.5 μmol/g wet tissue | GSH in the substantia nigra [4]: 143 ± 13 μg/g protein | Glu in Striatum [4]: 26.5 ± 2.7 | Glu in Substantia nigra [4]: 29.5 ± 2.4 | MDA in the substantia nigra [4]: 14 ± 4 μmol/g protein
